Test results from PubChem BioAssay AID328 (DTP/NCI, 2004).
Inconclusive results and toxic doses are left out.

Tested on: BDF1 mice, P388 leukemia ip, median survival T/C
Experiment: NCI In Vivo Anticancer Drug Screen. Data for tumor model P388 Leukemia (intraperitoneal) in B6D2F1 (BDF1) mice
Conditions: endpoint: median survival time, higher = longer survival
Summary of the method: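 Compound-treated tumour-bearing mice were compared with vehicle-treated controls. Survival was recorded, and the value is the treated-group measurement divided by the control-group measurement (T/C).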

[1] = dose: 200.0 mg/kg/injection, schedule: Q01DX009 (ip), vehicle: saline with Tween-80

For C/C=C/C1CC(OC)=CC(=O)O1 (stereo not drawn), the T/C (dose: 100.0 mg/kg/injection, schedule: Q04DX003 (ip), vehicle: saline with Tween-80) was 106 % of control, the T/C (dose: 200.0 mg/kg/injection, schedule: Q04DX003 (ip), vehicle: saline with Tween-80) was 92 % of control and the T/C (dose: 400.0 mg/kg/injection, schedule: Q04DX003 (ip), vehicle: saline with Tween-80) was 97 % of control.

In the case of C=CCN1C(=O)CN=C1SC(=O)Nc1ccc(Cl)cc1, the T/C (dose: 50.0 mg/kg/injection, schedule: Q01DX005 (ip), vehicle: saline with Tween-80) is reported as 97 % of control and the T/C (dose: 100.0 mg/kg/injection, schedule: Q01DX005 (ip), vehicle: saline with Tween-80) is reported as 97 % of control.

With O=[N+]([O-])c1ccc(Cl)nc1 the T/C [1] was 95 % of control.

With O=C(Cn1cc(F)c(=O)[nH]c1=O)c1cccs1 the T/C (dose: 100.0 mg/kg/injection, schedule: Q01DX009 (ip), vehicle: saline) was 100 % of control, the T/C (dose: 100.0 mg/kg/injection, schedule: Q04DX003 (ip), vehicle: saline) was 95 % of control and the T/C (dose: 200.0 mg/kg/injection, schedule: Q01DX009 (ip), vehicle: saline) was 100 % of control. The T/C (dose: 200.0 mg/kg/injection, schedule: Q04DX003 (ip), vehicle: saline) was 90 % of control, the T/C (dose: 400.0 mg/kg/injection, schedule: Q01DX009 (ip), vehicle: saline) was 95 % of control and the T/C (dose: 400.0 mg/kg/injection, schedule: Q04DX003 (ip), vehicle: saline) was 90 % of control.

In the case of COc1cccc(CNc2ccc(C)c(Cl)c2)c1OC, the T/C (dose: 12.5 mg/kg/injection, schedule: Q01DX009 (ip), vehicle: gum acacia) is reported as 92 % of control, the T/C (dose: 25.0 mg/kg/injection, schedule: Q01DX009 (ip), vehicle: gum acacia) is reported as 107 % of control and the T/C (dose: 50.0 mg/kg/injection, schedule: Q01DX009 (ip), vehicle: gum acacia) is reported as 103 % of control. The T/C (dose: 100.0 mg/kg/injection, schedule: Q04DX003 (ip), vehicle: gum acacia) was 91 % of control, the T/C (dose: 200.0 mg/kg/injection, schedule: Q04DX003 (ip), vehicle: gum acacia) was 95 % of control and the T/C (dose: 400.0 mg/kg/injection, schedule: Q04DX003 (ip), vehicle: gum acacia) was 95 % of control.

In the case of CC[C@@H]1C[C@H]2CC3c4[nH]c5ccc(O)cc5c4CCN(C2)C31, the T/C (dose: 25.0 mg/kg/injection, schedule: Q01DX001 (ip), vehicle: saline with Tween-80) is reported as 106 % of control, the T/C (dose: 50.0 mg/kg/injection, schedule: Q01DX001 (ip), vehicle: saline with Tween-80) is reported as 104 % of control and the T/C (dose: 100.0 mg/kg/injection, schedule: Q01DX001 (ip), vehicle: saline with Tween-80) is reported as 108 % of control.

C=C1C(=O)OC2/C=C(/C)C(OC(C)=O)CC(O)/C(C)=C\C(OC(=O)/C(C)=C\C)C12 (stereo not drawn) was tested, and the T/C (dose: 2.5 mg/kg/injection, schedule: Q01DX009 (ip), vehicle: saline + alcohol) was 100 % of control, the T/C (dose: 5.0 mg/kg/injection, schedule: Q01DX009 (ip), vehicle: saline + alcohol) was 118 % of control and the T/C (dose: 10.0 mg/kg/injection, schedule: Q01DX009 (ip), vehicle: saline + alcohol) was 109 % of control. The T/C (dose: 20.0 mg/kg/injection, schedule: Q01DX009 (ip), vehicle: saline + alcohol) was 109 % of control, the T/C (dose: 27.0 mg/kg/injection, schedule: Q01DX010 (ip), vehicle: saline) was 115 % of control and the T/C (dose: 40.0 mg/kg/injection, schedule: Q01DX009 (ip), vehicle: saline + alcohol) was 122 % of control. The T/C (dose: 40.0 mg/kg/injection, schedule: Q01DX010 (ip), vehicle: saline) was 110 % of control and the T/C (dose: 80.0 mg/kg/injection, schedule: Q01DX009 (ip), vehicle: saline + alcohol) was 86 % of control.

For Cc1cccc[n+]1CCC(N)=O, the T/C (dose: 6.25 mg/kg/injection, schedule: Q01DX009 (ip), vehicle: saline) was 92 % of control, the T/C (dose: 12.5 mg/kg/injection, schedule: Q01DX009 (ip), vehicle: saline) was 117 % of control and the T/C (dose: 25.0 mg/kg/injection, schedule: Q01DX009 (ip), vehicle: saline) was 103 % of control.

Cc1c(Cl)cnc(N)c1Cl (tested in a mixture with another compound) was tested, and the T/C (dose: 50.0 mg/kg/injection, schedule: Q01DX009 (ip), vehicle: saline with Tween-80) was 96 % of control, the T/C (dose: 100.0 mg/kg/injection, schedule: Q01DX009 (ip), vehicle: saline with Tween-80) was 156 % of control and the T/C [1] was 105 % of control.

With O=S1(=O)CC(N2CCCCC2)C2=C(CCN(c3ccccc3)C2)O1 (stereo not drawn) the T/C (dose: 100.0 mg/kg/injection, schedule: Q04DX002 (ip), vehicle: saline with Tween-80) was 112 % of control, the T/C (dose: 200.0 mg/kg/injection, schedule: Q04DX002 (ip), vehicle: saline with Tween-80) was 95 % of control and the T/C (dose: 400.0 mg/kg/injection, schedule: Q04DX002 (ip), vehicle: saline with Tween-80) was 98 % of control.
